From US9315816B2, “Method for rapidly developing gene switches and gene circuits” (National University Corporation Chiba University, priority 2010, dated 2016)

Key:
[1] = system: alkylating agent-sensitive E. coli strain MV2157; test: ON-selector function of AAG gene: survival rate under MMS; assay type: cell-based, Escherichia coli
Procedure: The ON-selector function of the AAG gene was studied. First, alkylating agent-sensitive E. coli strains MV2157 were separately transfected with plasmids containing AAG and variants thereof, specifically, pTrc-aag (WT), pTrc-aag (E125A), and pTrc-aag-ape1 prepared in Example 1, and were compared for their survival rates in the presence/absence of MMS. The E. coli strain transfected with pTrc-aag (E125A) was used as a negative control.
Next, 1 μL of culture was inoculated in LB liquid medium, and cultured at 37° C. for 3 hours. MMS was added at a final concentration of 0 to 40 mM, and culture was conducted at 37° C. for 15 to 60 minutes. […] A value obtained by dividing the viable cell count of the sample to which MMS had been added by the viable cell count of the sample to which MMS had not been added was defined as a survival rate.

[2] = system: TK-deficient E. coli strain JW1226 in which hsvTK was expressed (hsvTK+); test: OFF selection: dP concentration vs viable cell count, hsvTK+; assay type: cell-based, Escherichia coli; settings: dP 0 to 100 nM, 12 hours
Procedure: With the TK-deficient E. coli strain JW1226, human herpes virus derived thymidine kinase (hsvTK) was expressed by transfecting pTrc-hsvtk (FIG. 3), and a relationship between the concentration of dP and the survival rate of cells (viable cell count) was investigated.
First, JW1226 cells transfected with pTrc-hsvtk were cultured in 2 mL of LB medium containing 100 μg/mL of ampicillin at 37° C. overnight. Next, the culture was diluted with 1 mL of fresh LB medium containing dP (at a final concentration of 0 to 100 nM) 1,000-fold (10^6 cells/mL), and stirred and shaken at 37° C. for 12 hours. After the culture, the cells were seeded on an LB-agar (1.5% w/v) plate containing ampicillin at 100 μg/mL. After incubation at 37° C. for 12 hours, the number of colonies grown was counted as a viable cell count.

[3] = system: TK-deficient E. coli strain transfected with a control plasmid pTrc99A (hsvTK−); test: OFF selection: dP concentration vs viable cell count, hsvTK− control; assay type: cell-based, Escherichia coli; settings: dP 0 to 100 nM, 12 hours
[4] = system: TK-deficient cells transfected with pTrc-hsvtk constantly expressing hsvTK; test: Rapidity of OFF selection (dP shock); assay type: cell-based, Escherichia coli; settings: dP 1 μM; 5, 30 or 60 minutes
Procedure: First, TK-deficient cells transfected with pTrc-hsvtk (FIG. 3) so as to constantly express hsvTK were cultured under shaking at 37° C. and 200 rpm until an OD of 0.05 (approximately 3×10^7 cells/mL) was achieved. The resultant was dispensed at 1 mL each, dP was added (final concentration: 1 μM), and culture was continued at 37° C. After a lapse of 5, 30, or 60 minutes, 20 μL of the culture (approximately 10^6 cells) were collected and inoculated in an LB plate containing ampicillin, and the number of colonies grown was counted as a viable cell count.

E. coli cell population = settings: 37 μM dP; cited from earlier work
[5] = system: TK-deficient E. coli strain in which hsvTK was not expressed (hsvTK−); test: ON selection: 5FdU concentration vs viable cell count, hsvTK−; assay type: cell-based, Escherichia coli; settings: 5FdU 0 to 25 μg/mL, 12 hours
[6] = system: TK-deficient E. coli strain in which hsvTK was expressed (hsvTK+); test: ON selection: 5FdU concentration vs viable cell count, hsvTK+; assay type: cell-based, Escherichia coli
Procedure: With the TK-deficient strain of E. coli JW1226, a human herpes virus derived thymidine kinase (hsvTK) was expressed by transfecting pTrc-hsvtk (FIG. 3), and a relationship between the concentration of 5FdU and the survival rate of cells (viable cell count) was investigated.
First, JW1226 cells transfected with pTrc-hsvtk were diluted with 1 mL of positive selection medium so as to achieve an OD600 of 0.002 (approximately 10^6 cells/mL), and cultured at 37° C. for 12 hours while being rotated at 200 rpm. The positive selection medium used was medium containing tryptone at 2% w/v, NaCl at 0.5% w/v, dT at 10 μg/mL, adenosine at 1 μg/mL, and 5FdU at 0 to 25 μg/mL. After the culture, a portion of the resultant culture was collected and inoculated in an LB plate containing ampicillin, and the number of colonies grown was counted as a viable cell count.

[7] = system: E. coli MV2157 transfected with selector plasmid Ver. 2 and Circuit-C or Circuit-D; test: ON selection of genetic circuit with selector plasmid Ver. 2 under MMS; assay type: cell-based, Escherichia coli
Procedure: First, E. coli MV2157 transfected with selector plasmid Ver. 2 and Circuit-C (referred to as “ON strain” in Example 3), and E. coli MV2157 transfected with selector plasmid Ver. 2 and […] (referred to as “OFF strain” in Example 3) were prepared. […] The cell density at the time of the MMS treatment is approximately 10^8 cells/mL. […] A value obtained by dividing the viable cell count of the sample to which MMS had been added by the viable cell count of the sample to which MMS had not been added was defined as a survival rate.
Next, time-dependent changes in the survival rates of the ON strain and the OFF strain when MMS was added at 0.2% were investigated. In this case, an ON strain transfected with pTrc-ape1 was prepared and similarly studied for comparison. Culture and treatment with MMS of each strain of E. coli were conducted by similar methods to the methods in the foregoing.

[8] = system: E. coli MV2157 switch strains with selector plasmid Ver. 2; test: Enrichment efficiency by dual selection, Circuit-B:C:D = 1:100:100; assay type: cell-based, Escherichia coli; settings: 0.4% MMS, 30 minutes, approximately 10^6 cells/mL
Procedure: Next, enrichment efficiency by dual selection was evaluated. Selector plasmid Ver. 2 (FIG. 13-B) was used as a selector plasmid, and the following three kinds of model genetic circuits were used: Circuit-B; Circuit-C; and Circuit-D (see FIGS. 2-B, 2-C, and 2-D). The selector plasmid and one kind of model genetic circuit were transfected into E. coli MV2157. Each switch strain was inoculated in 2 mL of LB medium containing AHL, and cultured at 37° C. for 12 hours. Next, the switch strains having Circuit-B, Circuit-C, or Circuit-D were mixed at an abundance ratio of 1:100:100 in terms of OD. The mixed cell population was subjected to OFF selection by the same method as above, and then cultured at 37° C. for 2 hours. The cells were harvested by centrifugation, the medium was exchanged for M9 minimal medium, MMS was added at a concentration of 0.2%, 0.3%, or 0.4%, and the whole was left to stand still at 37° C. for 30 minutes (ON selection). After that, the medium was exchanged for LB medium, culture was conducted for 12 hours, and plasmids were extracted from the culture solution. The plasmids were transformed together with pλ-gfp into XL10-GOLD™ ultracompetent cells (Agilent Technologies). After that, the transformed cells were inoculated in solid media supplemented and not supplemented with AHL, and the numbers of cells expressing GFP were compared. […]

pTrc-aag (WT): ON-selector plasmid containing a wild-type AAG gene
MMS resistance ([1]; 3-methyladenine repair enzyme-deficient strain): acquisition of MMS resistance has been confirmed

O=C1NC2=NOCCC2=CN1[C@H]1C[C@H](O)[C@@H](CO)O1 [dP, 6-(β-D-2-Deoxyribo-furanosyl)-3,4-dihydro-8H-pyrimido[4,5-c][1,2]oxazin-7-one]
viable cell count [2]: significantly decreased in a dP concentration-dependent manner | survival rate [3]: no reduction in survival rate | viable cell count after dP shock [4]: almost zero | fraction of E. coli cell population killed (E. coli cell population): 80%

O=c1[nH]c(=O)n([C@H]2C[C@H](O)[C@@H](CO)O2)cc1F [5FdU, 5-fluoro-2′-deoxyuridine]
viable cell count [5]: decreased with increasing concentrations of 5FdU | viable cell count ([6]; 5FdU 0 to 25 μg/mL, 12 hours, hsvTK+): decreased at a slow rate | survival rate of hsvTK+ as compared to hsvTK− ([6]; 5FdU 25 μg/mL): 4.8×10^7 fold

CS(=O)(=O)O [MMS, methanesulfonic acid]
survival rates of cells expressing AAG ([1]; MMS 20 mM, 60 minutes): significantly decreased | enrichment of cells expressing AAG ([1]; MMS treatment 15 to 60 minutes): ~1,000 fold | survival of all the strains ([1]; MMS ~40 mM): mostly died off | survival rate of OFF strain (AAG not expressed) ([7]; MMS 0.2-0.4%, 15 to 60 minutes): significantly decreased | survival rate of ON strain (AAG expressed) ([7]; MMS 0.2-0.4%, 15 to 60 minutes): only slightly reduced | difference in survival rate between the OFF strain and the ON strain ([7]; MMS 0.4%, 30 minutes): ≥ 10^4 fold | cell survival in ON selection [8]: all the cells were killed
